This note sets out measurements from PubChem BioAssay (NCI).

Some test systems named below: CAKI-1 renal; SK-MEL-5 melanoma; SN12C renal; NCI-H23 lung; MALME-3M melanoma; SK-MEL-2 melanoma; SR leukemia; BT-549 breast; CCRF-CEM leukemia; HCT-116 colon.
Common to all, as to assay: NCI-60 cell line screen, 48 h

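Cultured in 96-well plates, cells were exposed to test compound for 48 hours across five concentrations. Abbreviation: GI50, concentration required for 50% inhibition of growth. TGI denotes the concentration required for complete inhibition of growth.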

As to `CC(=O)Oc1cccc2c(/C=N/NC(N)=S)ncc(C)c12`, the TGI amounted to 15.6 µM in the assay on CAKI-1 renal; 16.4 µM in the assay with SK-MEL-5 melanoma; 17.1 µM in the assay with SN12C renal; 13.4 µM in the assay on NCI-H23 lung; 42.7 µM in the assay with MALME-3M melanoma; 25.3 µM in the assay with SK-MEL-2 melanoma. Further, the TGI in the assay on SR leukemia is > 65.9 µM; in the assay on BT-549 breast, 12.3 µM; in the assay on CCRF-CEM leukemia it was > 100 µM; in the assay with HCT-116 colon it was 32.6 µM.
In the case of `NNC(N)Nc1ccccc1` (stereo not given), the TGI with CAKI-1 renal, with SK-MEL-5 melanoma, in the assay with SN12C renal, in the assay on NCI-H23 lung, in the assay on MALME-3M melanoma and in the assay with SK-MEL-2 melanoma was > 100 µM in each case. Besides, the TGI with SR leukemia, in the assay with BT-549 breast and with CCRF-CEM leukemia was > 100 µM each time.
Regarding `C=CC(Br)(CBr)CCC(Cl)C(C)C` (stereo not given), the TGI in the assay with CAKI-1 renal turned out to be 7.52 µM; in the assay with SK-MEL-5 melanoma, 3.91 µM; in the assay on SN12C renal it was 3.19 µM; in the assay on NCI-H23 lung, 8.82 µM; with MALME-3M melanoma, 3.71 µM; in the assay with SK-MEL-2 melanoma it was 3.92 µM. Further, the TGI was 2.38 µM in the assay on SR leukemia, 2.96 µM in the assay with BT-549 breast, 2.64 µM with CCRF-CEM leukemia and 12 µM in the assay on HCT-116 colon.
As to `CCC[CH2][Ge]([CH2]CCC)([CH2]CCC)[O]C(=O)CC(=O)c1ccccc1`, the GI50 in the assay with CAKI-1 renal is 6.37 µM; in the assay with SN12C renal, 0.538 µM; in the assay with NCI-H23 lung, 0.28 µM; in the assay on MALME-3M melanoma it was 1.47 µM; in the assay on SK-MEL-2 melanoma, 2.22 µM; with SR leukemia, 0.707 µM. Further, the GI50 with CCRF-CEM leukemia was 0.266 µM; in the assay on HCT-116 colon, 0.191 µM. The TGI came out at 20.6 µM with CAKI-1 renal; 15 µM in the assay with SN12C renal; 14.8 µM in the assay on NCI-H23 lung; 13 µM with MALME-3M melanoma; 17.9 µM in the assay with SK-MEL-2 melanoma; 33.6 µM in the assay with SR leukemia. The TGI with CCRF-CEM leukemia stood at 10.6 µM; with HCT-116 colon, 12.3 µM.
Take `c1ccc(N=C2SC(=NC3CCCCC3)N(C3CCCCC3)C2=Nc2ccccc2)cc1`: the TGI in the assay on CAKI-1 renal, in the assay on SK-MEL-5 melanoma, in the assay with SN12C renal, in the assay on NCI-H23 lung, in the assay with MALME-3M melanoma and in the assay on SK-MEL-2 melanoma was > 100 µM throughout. For the same molecule, the TGI in the assay on SR leukemia, with BT-549 breast, with CCRF-CEM leukemia and with HCT-116 colon was > 100 µM each time.
With `NCCCNc1nc2ccccc2c2c(=O)c3cc(OC(F)(F)F)ccc3sc12`, the GI50 in the assay with CAKI-1 renal was 1.58 µM; with SK-MEL-5 melanoma, 1.83 µM; in the assay with SN12C renal, 1.66 µM; in the assay on NCI-H23 lung it was 1.62 µM; in the assay with MALME-3M melanoma it was 1.57 µM; with SK-MEL-2 melanoma, 1.93 µM. For the same molecule, the GI50 with BT-549 breast is 10.7 µM. For the same molecule, the TGI in the assay on CAKI-1 renal stood at 2.93 µM; with SK-MEL-5 melanoma it was 3.36 µM; with SN12C renal it was 3.14 µM; with NCI-H23 lung, 3.09 µM; in the assay with MALME-3M melanoma it was 3.08 µM; in the assay with SK-MEL-2 melanoma, 3.72 µM. Further, in the assay with BT-549 breast, the TGI amounted to 32.6 µM.
As for `Cc1cc(=O)[nH]c(NN2C(Cl)C(=O)C2c2cccc(O)c2)n1` (stereo not given), the TGI in the assay on SK-MEL-5 melanoma, in the assay with SN12C renal, in the assay on NCI-H23 lung, in the assay with SK-MEL-2 melanoma, in the assay with SR leukemia and in the assay with CCRF-CEM leukemia was > 100 µM throughout. Besides, the TGI with HCT-116 colon was > 100 µM.
With `NC(CCCCP(=O)(O)O)C(=O)O` (stereo not given), the TGI in the assay on CAKI-1 renal, in the assay with SK-MEL-5 melanoma, with SN12C renal, in the assay with NCI-H23 lung, in the assay with SK-MEL-2 melanoma and with SR leukemia was > 100 µM in each case. Moreover, the TGI in the assay on BT-549 breast, with CCRF-CEM leukemia and in the assay with HCT-116 colon was > 100 µM in each case.
